Results taken from patent US20120164674A1, “DEVICES AND WASHES FOR BIOMARKER STABILIZATION” (priority 2010, published 2012).

T1: Lysozyme (Homo sapiens, UniProt P61626)
T1 construct: from tissue; host or cells: saliva (3.5% dilute or 100%)
T1 sequence (P61626 19-148): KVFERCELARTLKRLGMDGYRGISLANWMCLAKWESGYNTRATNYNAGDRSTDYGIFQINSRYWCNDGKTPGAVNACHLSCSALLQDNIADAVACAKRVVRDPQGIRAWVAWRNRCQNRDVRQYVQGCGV

B1: Soybeans: primary soybean protease inhibitor, 20.7-22.3 kDa (protein, UniProt P01070 25-205, looked up)
Trypsin inhibitor A: DFVLDNEGNPLENGGTYYILSDITAFGGIRAAPTGNERCPLTVVQSRNELDKGIGTIISSPYRIRFIAEGHPLSLKFDSFAVIMLCVGIPTEWSVVEDLPEGPAVKIGENKDAMDGWFRLERVSDDEFNNYKLVFCPQQAEDDKCGDIGISIDHDDGTRRLVVSKNKPLVVQFQKLDKESL

Key:
peroxidase = experiment: Peroxidase assay in saliva (Amplex Red); format: biochemical; conditions: 500 ppm, 30 minutes, FIGS. 26-29
Galactose Oxidase = conditions: dilute (3.5%) saliva; FIG. 13
Lysozyme = target: T1, Lysozyme; experiment: Lysozyme inhibition saliva screening (fluorescein-labeled Micrococcus lysodeikticus); format: biochemical; conditions: for inhibition of Lysozyme: 100% saliva samples (data not shown); for RFU Reading (60 mins): saliva, test compound prepared at 5,000 ppm; for Lysozyme Inhibitor Activity: dilute (3.5%) saliva, FIG. 12
Text: At least one assay used for the detection of […], as used herein includes the use of a Micrococcus lysodeikticus labeled with fluorescein. The assay measures lysozyme activity on Micrococcus lysodeikticus cell walls, which are labeled to such a degree that the fluorescence is quenched. Lysozyme activity can relieve this quenching; yielding increased fluorescence that is proportional to lysozyme activity.
For the assay, test compounds are mixed with saliva, prior to the addition of lysozyme substrate. The test compounds, such as GRAS materials, are prepared at a concentration of 5,000 ppm in distilled water. Following this preparation, 50 μl of lysozyme substrate at 1 mg/ml (Molecular Probes EnzChek Lysozyme Assay Kit) that has been pre-heated to 37° C. is added to 50 μl of the test compound. To initiate the assay, 50 μl of a dilute (3.5%) or full strength (100%) saliva solution is added to the mixture. Following the initiation, each mixture is measured at 1 minute intervals using a spectrophotometer (such as Molecular Devices M5 reader) for absorption at 494 nm and fluorescence emission at 518 nm. Temperatures of the mixtures are kept constant at 37° C. during the assay.
A series of GRAS compounds were tested using the Lysozyme assay protocol described above. […] Further details of these five compounds may also be seen in Table 5.

protease = conditions: cited from earlier work

Molecule	peroxidase inhibition (peroxidase)	Galactose Oxidase Inhibitor Activity (Galactose Oxidase)	inhibition of Lysozyme (Lysozyme)	RFU Reading (60 mins) (Lysozyme)	Lysozyme Inhibitor Activity (Lysozyme)	Inhibitory power (protease)
O=C(O)c1ccccc1 [CDI #16, Benzoic acid]	significant peroxidase inhibition capabilities					
Cn1c(=O)c2c(ncn2C)n(C)c1=O [CDI #33, Caffeine]	significant peroxidase inhibition capabilities					
COc1ccc(O)c(C(C)(C)C)c1 [CDI-039, 3-tert--butyl-hydroxyanisole]	significant peroxidase inhibition capabilities	shown to have Galactose Oxidase Inhibitor Activity				
O=C(O)c1ccccc1 [CDI-40, Benzoic acid]		shown to have Galactose Oxidase Inhibitor Activity	shown to inhibit Lysozyme	35.82 RFU	shown to have Lysozyme Inhibitor Activity	
CC(=O)O [CDI-047, Acetic acid]		shown to have Galactose Oxidase Inhibitor Activity	shown to inhibit Lysozyme	33.53 RFU	shown to have Lysozyme Inhibitor Activity	
B1						1.2 times times weight
